Assay results taken from patent US8268363B2, “Pharmaceutical combination preparation containing glycyrrhizine, zinc, and a compound comprising a thiol group or a group that is metabolized thereto” (priority 2003, dated 2012).

Test system: flu symptoms (colds, flu, viral infection of the upper respiratory tract)
Experiment: clinical studies in flu symptoms: single substances and the combination
Format: in vivo, human
Conditions: single treatment; for effect on a scale of 1-10 (1 least effect, 10 maximum effect): daily dose divided in three doses; for average duration of the illness: daily dose divided in three doses (zinc 125 mg, N-acetylcysteine 2400 mg, glycyrrhicinic acid 1500 mg), without treatment normally 7 days
Protocol: In clinical studies each single substance was tested in flu symptoms (colds, flu, viral infection of the upper respiratory tract) whose duration without treatment normal lasted 7 days.
a) Zinc as a single treatment: • 125mg per day, divided in three doses:
b) N-Acetylcysteine • 2400 mg, divided in three doses;
c) Glycyrrhicinic acid • 1500 mg, divided in three doses;
The average duration of illness with the treatment combination of all three of the above substances a), b), and c) in the majority of the cases the duration of the illness was shortened to 24 hours or less. […] 24 hours later, 85% of the patients were completely without symptoms and able to return to work. The maximum duration in a few cases lasted 5 days.
Further, 20 children between the ages of 7 to 15 years old were treated with half of the doses from the combination of a) b) and c). The results were the same as for the adults.

Molecule	effect on a scale of 1-10 (1 least effect, 10 maximum effect)	average duration of the illness
Glycyrrhicinic acid	2	5.0 days
CC(=O)N[C@@H](CS)C(=O)O [N-Acetylcysteine]	5	4 days
Zinc	2	5 days
